The values below come from ChEMBL document CHEMBL1137522, “Two new phenylpiperazines with atypical antipsychotic potential” (Bioorg Med Chem Lett, 2007).

The structures appear in SMILES notation. pKi: −log10 of the molar value. Activity calls are given as the source filed them. The calls are words filed in the database; no cut-off is given here.

For data set [1], the target named is 5-hydroxytryptamine receptor 2A (Rattus norvegicus, UniProt P14842). Nature of the data set: Binding affinity at 5HT2A receptor in rat striatal membranes. It counts as cell membranes, Striatum, Membrane.
A further data set deals with D(2) dopamine receptor (Rattus norvegicus, UniProt P61169). Nature of the data set: Binding affinity at dopamine D2 receptor in rat striatal membranes. It counts as cell membranes, Striatum, Membrane.
In data set [2] the target is T1, 5-hydroxytryptamine receptor 1A (Rattus norvegicus, UniProt P19327).
T1 sequence (P19327 whole entry): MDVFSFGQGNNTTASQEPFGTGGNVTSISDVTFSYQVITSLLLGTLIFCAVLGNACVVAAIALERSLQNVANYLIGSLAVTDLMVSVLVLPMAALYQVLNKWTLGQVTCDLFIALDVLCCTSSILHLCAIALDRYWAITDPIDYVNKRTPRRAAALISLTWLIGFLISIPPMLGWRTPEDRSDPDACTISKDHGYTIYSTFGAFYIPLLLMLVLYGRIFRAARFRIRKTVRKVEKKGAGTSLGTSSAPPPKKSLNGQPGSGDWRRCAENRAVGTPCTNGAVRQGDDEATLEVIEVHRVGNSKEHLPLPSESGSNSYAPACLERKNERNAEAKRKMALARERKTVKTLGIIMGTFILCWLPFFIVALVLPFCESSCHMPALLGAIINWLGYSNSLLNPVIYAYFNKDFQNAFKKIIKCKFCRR
Nature of the data set: Binding affinity at 5HT1A receptor in rat striatal membranes. It counts as cell membranes, Striatum, Membrane.

Data set [3] is described as follows: Binding affinity at adrenergic alpha 1 receptor in rat striatal membranes. It is filed as cell membranes, Striatum, Membrane.
The next data set concerns Rattus norvegicus. Nature of the data set: Induction of catalepsy in Mill Hill hooded rat at 10 mg/kg after 30-180 min. It is filed as organism-based. More on the design: dose 10 mg/kg. The note with it: in vivo.
For a further data set, the species on record is Mus musculus. Nature of the data set: Antagonist effect on amphetamine-induced hyperlocomotion in CPU mouse by open field test. It counts as functional, organism-based.

D(2) dopamine receptor, sequence (P61169 whole entry): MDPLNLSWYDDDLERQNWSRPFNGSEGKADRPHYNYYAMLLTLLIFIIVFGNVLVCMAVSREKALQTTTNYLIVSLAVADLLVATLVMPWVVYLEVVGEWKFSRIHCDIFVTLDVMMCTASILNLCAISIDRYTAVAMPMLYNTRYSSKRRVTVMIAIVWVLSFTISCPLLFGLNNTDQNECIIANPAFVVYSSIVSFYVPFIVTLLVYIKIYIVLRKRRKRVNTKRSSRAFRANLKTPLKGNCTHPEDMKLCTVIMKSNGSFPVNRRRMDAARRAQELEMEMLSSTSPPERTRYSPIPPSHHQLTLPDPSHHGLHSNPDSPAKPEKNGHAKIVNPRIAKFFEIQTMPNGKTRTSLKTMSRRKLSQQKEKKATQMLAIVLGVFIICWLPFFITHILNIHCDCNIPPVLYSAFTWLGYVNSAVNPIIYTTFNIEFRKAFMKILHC
5-hydroxytryptamine receptor 2A, sequence (P14842 whole entry): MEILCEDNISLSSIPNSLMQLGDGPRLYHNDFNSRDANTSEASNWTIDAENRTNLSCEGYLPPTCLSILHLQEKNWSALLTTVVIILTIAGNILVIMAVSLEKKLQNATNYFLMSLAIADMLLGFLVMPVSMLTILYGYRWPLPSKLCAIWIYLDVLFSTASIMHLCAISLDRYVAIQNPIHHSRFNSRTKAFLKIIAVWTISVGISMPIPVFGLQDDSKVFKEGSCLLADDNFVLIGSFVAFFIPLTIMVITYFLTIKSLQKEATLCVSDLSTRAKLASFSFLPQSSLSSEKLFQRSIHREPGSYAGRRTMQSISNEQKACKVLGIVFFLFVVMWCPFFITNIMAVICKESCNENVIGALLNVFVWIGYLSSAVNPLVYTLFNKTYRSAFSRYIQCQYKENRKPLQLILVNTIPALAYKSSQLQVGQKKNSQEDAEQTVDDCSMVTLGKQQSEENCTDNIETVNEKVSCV

What is called pKi is the negative decadic logarithm of the Ki, by convention in mol/L. Low values mean a high Ki, high ones a low Ki. `COc1ccccc1N1CCN(CCCOc2ccc3[nH]c(=S)[nH]c3c2)CC1`: the results for the pKi (in data set [1]; at D(2) dopamine receptor; in data set [2]) were 7.72, 8.77 and 6.75, respectively. In data set [3], the “Log Ki” value is on record as -8.71.

For the compound `FC(F)(F)c1cccc(N2CCN(CCCOc3ccc4[nH]cnc4c3)CC2)c1`, the results for the pKi (in data set [1]; at D(2) dopamine receptor; in data set [2]) were 6.99, 7.82 and 6.41, respectively. Also, the “Log Ki” value in data set [3] is recorded as -6.92.

Take `FC(F)(F)c1cccc(N2CCN(CCCOc3ccc4[nH]c(=S)[nH]c4c3)CC2)c1`: the pKi in data set [1] was 6.50; on D(2) dopamine receptor, 6.44; in data set [2] it was 7.00. The “Log Ki” value in data set [3] is on record as -6.31.

For the compound `S=c1[nH]c2ccc(OCCCN3CCN(c4ccccc4)CC3)cc2[nH]1`, in the data set with Rattus norvegicus, the Activity result is on record as “Not Active”. Besides, the figures for the pKi (in data set [1]; on D(2) dopamine receptor; in data set [2]) were 8.69, 7.38 and 6.03, respectively. For the same compound, the outcome in the data set listed under Mus musculus was Active. Further, the “Log Ki” value in data set [3] is recorded as -7.53.

For the compound `COc1ccccc1N1CCN(CCCOc2ccc3[nH]cnc3c2)CC1`, the negative-log Ki (pKi) in data set [1] is 7.10; at D(2) dopamine receptor it was 8.06; in data set [2], 7.82. In addition, the “Log Ki” value in data set [3] is -8.23.

For the compound `c1ccc(N2CCN(CCCOc3ccc4[nH]cnc4c3)CC2)cc1`, in the data set on Rattus norvegicus, the Activity result is given as “Not Active”. Also, the figures for the pKi (in data set [1]; at D(2) dopamine receptor; in data set [2]) were 7.86, 7.12 and 6.19, respectively. Also, the result in the data set listed under Mus musculus was Active. Moreover, in data set [3], the “Log Ki” value is given as -7.58.

Regarding `CN1CCN(C2=Nc3cc(Cl)ccc3Nc3ccccc32)CC1` [CLOZAPINE], in data set [3], the “Log Ki” value is listed as -7.65.
